Test [1] concerns the target T1, Recombinant human galectin-3 (Homo sapiens, UniProt P17931).
T1 construct: made in house; host or cells: Escherichia coli
Nature of the test: fluorescence polarization-based galectin-3 inhibition assay. Type of test: binding. As for the experimental part: NMR-spectra were recorded with a Bruker DRX-400 instrument. Chemical shifts are given in ppm, with reference to internal residual solvent peaks. Chemical shifts and coupling constants were obtained from ^1H-NMR and proton resonances were assigned from COSY experiments. High-resolution FAB mass spectra (HRMS) were recorded with a JEOL SX-120 instrument. Fluorescence polarization experiments were performed on a PolarStar instrument (BMG, Offenburg; Germany). Column chromatography was performed on SiO2 (Matrex, 60 Å, 35-70 μm, Grace Amicon) and TLC was carried out on SiO2 60 F254 (Merck) with detection under UV light and developed with aqueous sulfuric acid. Concentrations were made using rotary evaporation with bath temperature at or below 40° C. CH2Cl2 and CH3CN were dried by distillation from CaH2. Microwell plates were from Costar, Corning, N.Y. (black polystyrene). Recombinant human galectin-3 was produced in Escherichia coli and purified as previously described (S. M. Massa et al, 1993). PBS was 118 mM NaCl, 67 mM Na/K-phosphate, pH 7.2, 2 mM EDTA, 4 mM β-mercaptoethanol.
To 100 μL of galectin-3 (1 μM) and a fluorescent probe (2-(fluorescein-5/6-yl-carbonyl)-aminoethyl 4-O-[3-O-(4-methoxy]benzyl)-β-D-galactopyranosyl]-β-D-glucopyranoside, 0.1 μM) were added inhibitor solution (3.2-10000 μM, 100 μL), the plate was incubated under slow rotary shaking in the dark for 5 minutes, and fluorescence polarization measured at room temperature. The fluorescence was measured from above in 96 well microtiter plates (black polystyrene, Costar, Corning, N.Y.) using a PolarStar instrument (BMG, Offenburg; Germany). Control wells containing only fluorescent probe or fluorescein were included. All dilutions and measurements were done in PBS.
For orientation: Fluorescence polarisation rises when a labelled molecule tumbles more slowly, as on binding a larger partner.

For a further test, the system named is galectins. As to conditions: cited from earlier work.
[2] abbreviates: galectin-3, fluorescence polarization.

Like-named read-outs stand apart in the source and are kept apart here.

T1 sequence (P17931 whole entry): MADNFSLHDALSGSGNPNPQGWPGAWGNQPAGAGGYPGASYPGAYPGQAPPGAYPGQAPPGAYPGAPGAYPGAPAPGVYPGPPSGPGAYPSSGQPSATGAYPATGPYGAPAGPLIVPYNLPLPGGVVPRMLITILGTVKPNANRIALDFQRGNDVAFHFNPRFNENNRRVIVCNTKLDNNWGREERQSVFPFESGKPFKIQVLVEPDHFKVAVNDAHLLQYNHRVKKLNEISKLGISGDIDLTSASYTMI

The Kd is the equilibrium constant for the complex coming apart. For `CS[C@@H]1O[C@H](CO)[C@H](O)[C@H](n2ccnn2)[C@H]1O` [Compound 8, Methyl 3-deoxy-3-(1H-[1,2,3]-triazol-1-yl)-1-thio-β-D-galactopyranoside], the equilibrium dissociation constant (Kd) in test [1] (read-out: Calculated Kd) was 2.1e+07 nM.
In the case of `CCCc1cn([C@H]2[C@@H](O)[C@@H](CO)O[C@@H](SC)[C@@H]2O)nn1` [Compound 9, Methyl 3-deoxy-3-(4-propyl-1H-[1,2,3]-triazol-1-yl)-1-thio-β-D-galactopyranoside], in test [1] (read-out: Calculated Kd), the Kd was 4.62e+06 nM.
Take `COC(=O)c1cn([C@H]2[C@@H](O)[C@@H](CO)O[C@@H](SC)[C@@H]2O)nn1` [Compound 10, Methyl 3-(4-methoxycarbonyl-1H-[1,2,3]-triazol-1-yl)-3-deoxy-1-thio-β-D-galactopyranoside]: the Kd in test [1] (read-out: Calculated Kd) was 1.41e+06 nM.
For `CS[C@@H]1O[C@H](CO)[C@H](O)[C@H](n2cc(C3(O)CCCCC3)nn2)[C@H]1O` [Compound 11, Methyl 3-deoxy-3-(4-(1-hydroxy-1-cyclohexyl)-1H-[1,2,3]-triazol-1-yl)-1-thio-β-D-galactopyranoside], in test [1] (read-out: Calculated Kd), the Kd is 1.38e+06 nM.
As to `CS[C@@H]1O[C@H](CO)[C@H](O)[C@H](n2cc(-c3ccccc3)nn2)[C@H]1O` [Compound 12, Methyl 3-deoxy-3-(4-phenyl-1H-[1,2,3]-triazol-1-yl)-1-thio-β-D-galactopyranoside], in test [1] (setting [2]), the “improvement in Kd in comparison with the reference inhibitor 27” value is recorded as 50 fold. In addition, the Kd in test [1] (read-out: Calculated Kd) is 147000 nM.
Turning to `CS[C@@H]1O[C@H](CO)[C@H](O)[C@H](n2cc(S(=O)(=O)c3ccc(C)cc3)nn2)[C@H]1O` [Compound 13, Methyl 3-deoxy-3-(4-p-tolylsulfonyl-1H-[1,2,3]-triazol-1-yl)-1-thio-β-D-galactopyranoside], the “improvement in Kd in comparison with the reference inhibitor 27” value in test [1] (setting [2]) was determined as 50 fold. Further, the Kd in test [1] (read-out: Calculated Kd) was 141000 nM.
For `CNC(=O)c1cn([C@H]2[C@@H](O)[C@@H](CO)O[C@@H](SC)[C@@H]2O)nn1` [Compound 14, Methyl 3-(4-methylaminocarbonyl-1H-[1,2,3]-triazol-1-yl)-3-deoxy-1-thio-β-D-galactopyranoside], in test [1] (affinity for galectin-3 calculated from test by fluorescence polarization at one tested conc., galectin-3 1 μM, probe 0.1 μM, PBS, room temperature, read-out: Calculated Kd), the Kd was 230000 nM.
Consider `CCCCNC(=O)c1cn(C2C(O)[C@H](SC)OC(CO)[C@@H]2O)nn1` (stereo partly drawn) [Compound 15, Methyl 3-(4-butylaminocarbonyl-1H-[1,2,3]-triazol-1′-yl)-3-deoxy-1-thio-β-D-galactopyranoside], for which the “improvement in Kd in comparison with the reference inhibitor 27” value in test [1] (setting [2]) stood at 50 fold. The Kd in test [1] (read-out: Calculated Kd) was 124000 nM.
On to `CS[C@@H]1O[C@H](CO)[C@H](O)[C@H](n2cc(C(=O)NCc3ccccc3)nn2)[C@H]1O` [Compound 16, Methyl 3-(4-benzylaminocarbonyl-1H-[1,2,3]-triazol-1-yl)-3-deoxy-1-thio-β-D-galactopyranoside], for which the “improvement in Kd in comparison with the reference inhibitor 27” value in test [1] (setting [2]) was determined as 50 fold.
As to `CS[C@@H]1O[C@H](CO)[C@H](O)[C@H](n2cc(C(=O)NCCCO)nn2)[C@H]1O` [Compound 17, Methyl 3-{4-(3-hydroxyprop-1-ylaminocarbonyl)-1H-[1,2,3]-triazol-1-yl}-3-deoxy-1-thio-β-D-galactopyranoside], in test [1] (read-out: Calculated Kd), the Kd is 386000 nM.
In the case of `CS[C@@H]1OC(CO)[C@H](O)C(n2cc(C(=O)NCCN3CCOCC3)nn2)C1O` (stereo partly drawn) [Compound 18, Methyl 3-{4-[2-(N-morpholino)-ethylaminocarbonyl]-1H-[1,2,3]-triazol-1-yl}-3-deoxy-1-thio-β-D-galactopyranoside], the Kd in test [1] (read-out: Calculated Kd) is 571000 nM.
For `CNC(=O)c1cn([C@H]2[C@@H](O)[C@@H](CO)O[C@@H](S[C@@H]3O[C@H](CO)[C@H](O)[C@H](n4cc(C(=O)NC)nn4)[C@H]3O)[C@@H]2O)nn1` [Compound 26, Bis-(3-deoxy-3-{4-[(methylamino)carbonyl]-1H-1,2,3-triazol-1-yl}-β-D-galactopyranosyl)sulfane], in test [1] (galectin-3, fluorescence polarization, value given in text in nM, read-out: Kd), the Kd was 150 nM.
As to `O=C[C@H](O)[C@@H](O)[C@@H](O)[C@H](O)CO` [D-galactose], the “affinity lower than lactose” value in the test with galectins (galectins, relative to lactose) is given as 50-100 times.
For the molecule `OC[C@H]1O[C@@H](O[C@H]2[C@H](O)[C@@H](O)C(O)O[C@@H]2CO)[C@H](O)[C@@H](O)[C@H]1O` (some centres unmarked) [lactose], the Kd at galectins (all galectins, reviewed by Leffler, 2001 and Leffler et al., 2004) was 500 to 1000 µM.

The values above are taken from patent US7700763B2, “3-triazolyl-galactoside inhibitors of galectins” (Forskarpatent I Syd AB, priority 2004, dated 2010).
